Measured values reported in patent US20260240810A1, “COMPOSITIONS AND METHODS FOR REDUCING ADVERSE SIDE EFFECTS IN CANCER TREATMENT” (priority 2022, published 2026).

Test: PREVLAR trial: adverse events
Type: in vivo, human
Description: Of potential significance for OM, decreased rates of several pathognomonic toxicities were seen (see Table 4).
• CTCAEv.4 are a set of criteria for the standardized classification of AEs of drugs used in cancer therapy.

[1] = Arm 2: RRx-001 pretreatment + 2 concurrent doses + SOC chemoradiation
[2] = Arm 3: RRx-001 Pre-treatment + 6 Concurrent Doses + SOC Chemoradiation (N = 13)
[3] = Arm 3: RRx-001 pretreatment + 6 concurrent doses + SOC chemoradiation

Q: With O=C(CBr)N1CC([N+](=O)[O-])([N+](=O)[O-])C1 [RRx-001, 2-bromo-1-(3,3-dinitroazetidin-1-yl) ethan-1-one] as the molecule, how does the “SAE frequency: Alanine aminotransferase increased” value [1] read?
A: Its value is 9.1%.

Q: What about the “SAE frequency: Anemia” value [1] of the same molecule?
A: Its value is 9.1%.

Q: What about the “SAE frequency: Blood creatinine increased” value [1] of the same molecule?
A: The value was 9.1%.

Q: What about the “SAE frequency: Candida infection” value [1] of the same molecule?
A: The value was 9.1%.

Q: What about the “SAE frequency: Colitis” value [1] of the same molecule?
A: The value was 9.1%.

Q: What about the “SAE frequency: Deafness” value [1] of the same molecule?
A: Its value is 9.1%.

Q: What about the “SAE frequency: Decreased appetite” value [1] of the same molecule?
A: The value was 9.1%.

Q: What about the “SAE frequency: Device related thrombosis” value [1] of the same molecule?
A: Its value is 9.1%.

Q: And the “SAE frequency: Dysphagia” value [1]?
A: The value was 9.1%.

Q: And the “SAE frequency: Flank pain” value [1]?
A: The value was 9.1%.

Q: And the “SAE frequency: Hypokalemia” value [1]?
A: Its value is 9.1%.

Q: What about the “SAE frequency: Hypophosphatasemia” value [1] of the same molecule?
A: Its value is 9.1%.

Q: And the “SAE frequency: Laryngeal inflammation” value [1]?
A: Its value is 9.1%.

Q: And the “SAE frequency: Leukocytosis” value [1]?
A: The value was 9.1%.

Q: And the “SAE frequency: Lymphocyte count decreased” value [1]?
A: Its value is 72.7%.

Q: And the “SAE frequency: Nausea” value [1]?
A: Its value is 9.1%.

Q: And the “SAE frequency: Neutrophil count decreased” value [1]?
A: The value was 27.3%.

Q: What about the “SAE frequency: Oral pain” value [1] of the same molecule?
A: The value was 9.1%.

Q: What about the “SAE frequency: Oropharyngeal pain” value [1] of the same molecule?
A: Its value is 9.1%.

Q: And the “SAE frequency: Stomatitis” value [1]?
A: The value was 9.1%.

Q: And the “SAE frequency: Sudden death” value [1]?
A: Its value is 9.1%.

Q: What about the “SAE frequency: White blood cell count decreased” value [1] of the same molecule?
A: Its value is 36.4%.

Q: What about the “reported adverse events (CTCAEv.4): Anemia” value [2] of the same molecule?
A: Its value is 4 (30.8).

Q: What about the “reported adverse events (CTCAEv.4): Blood creatinine increased” value [2] of the same molecule?
A: The value was 0 (0).

Q: And the “reported adverse events (CTCAEv.4): Blood urea increased” value [2]?
A: Its value is 0 (0).

Q: What about the “reported adverse events (CTCAEv.4): Candida infection” value [2] of the same molecule?
A: The value was 3 (23.1).

Q: What about the “reported adverse events (CTCAEv.4): Constipation” value [2] of the same molecule?
A: Its value is 0 (0).

Q: What about the “reported adverse events (CTCAEv.4): Decreased appetite” value [2] of the same molecule?
A: Its value is 4 (30.8).

Q: And the “reported adverse events (CTCAEv.4): Dermatitis” value [2]?
A: The value was 0 (0).

Q: What about the “reported adverse events (CTCAEv.4): Dry mouth” value [2] of the same molecule?
A: Its value is 4 (30.8).

Q: And the “reported adverse events (CTCAEv.4): Dysgeusia” value [2]?
A: Its value is 7 (53.8).

Q: What about the “reported adverse events (CTCAEv.4): Dysphagia” value [2] of the same molecule?
A: Its value is 2 (15.4).

Q: What about the “reported adverse events (CTCAEv.4): Glossodynia” value [2] of the same molecule?
A: Its value is 0 (0).

Q: What about the “reported adverse events (CTCAEv.4): Laryngeal inflammation” value [2] of the same molecule?
A: The value was 0 (0).

Q: What about the “reported adverse events (CTCAEv.4): Neutrophil count decreased” value [2] of the same molecule?
A: The value was 1 (7.7).

Q: And the “reported adverse events (CTCAEv.4): Oral candidiasis” value [2]?
A: The value was 1 (7.7).

Q: And the “reported adverse events (CTCAEv.4): Oral dysaesthesia” value [2]?
A: The value was 0 (0).

Q: What about the “reported adverse events (CTCAEv.4): Oral dysesthesia” value [2] of the same molecule?
A: The value was 0 (0).

Q: What about the “reported adverse events (CTCAEv.4): Oral pain” value [2] of the same molecule?
A: The value was 4 (30.8).

Q: And the “reported adverse events (CTCAEv.4): Platelet count decreased” value [2]?
A: Its value is 3 (23.1).

Q: What about the “reported adverse events (CTCAEv.4): Radiation skin injury” value [2] of the same molecule?
A: The value was 4 (30.8).

Q: What about the “reported adverse events (CTCAEv.4): Salivary duct inflammation” value [2] of the same molecule?
A: Its value is 1 (7.7).

Q: What about the “reported adverse events (CTCAEv.4): Vomiting” value [2] of the same molecule?
A: The value was 3 (23.1).

Q: What about the “reported adverse events (CTCAEv.4): Weight decreased” value [2] of the same molecule?
A: The value was 2 (15.4).

Q: What about the “reported adverse events (CTCAEv.4): White blood cell count decreased” value [2] of the same molecule?
A: Its value is 1 (7.7).

Q: And the “SAE frequency: Complication associated with device” value [3]?
A: The value was 7.7%.

Q: What about the “SAE frequency: Decreased appetite” value [3] of the same molecule?
A: Its value is 15.4%.

Q: What about the “SAE frequency: Dry Mouth” value [3] of the same molecule?
A: Its value is 7.7%.

Q: And the “SAE frequency: Dysphagia” value [3]?
A: Its value is 30.8%.

Q: And the “SAE frequency: Embolism” value [3]?
A: The value was 7.7%.

Q: What about the “SAE frequency: Gastric Perforation” value [3] of the same molecule?
A: Its value is 7.7%.

Q: And the “SAE frequency: Gastrointestinal tube insertion” value [3]?
A: The value was 15.4%.

Q: And the “SAE frequency: Hypocalcemia” value [3]?
A: The value was 7.7%.

Q: And the “SAE frequency: Hypokalemia” value [3]?
A: The value was 7.7%.

Q: And the “SAE frequency: Hypophosphatasemia” value [3]?
A: The value was 7.7%.

Q: What about the “SAE frequency: Hypotension” value [3] of the same molecule?
A: Its value is 7.7%.

Q: And the “SAE frequency: Lung infection” value [3]?
A: Its value is 7.7%.

Q: And the “SAE frequency: Lymphocyte count decreased” value [3]?
A: The value was 53.8%.

Q: And the “SAE frequency: Nausea” value [3]?
A: The value was 7.7%.

Q: And the “SAE frequency: Neutrophil count decreased” value [3]?
A: The value was 30.8%.

Q: What about the “SAE frequency: Oral dysaesthesia” value [3] of the same molecule?
A: Its value is 7.7%.

Q: What about the “SAE frequency: Oral dysesthesia” value [3] of the same molecule?
A: The value was 7.7%.

Q: And the “SAE frequency: Oral pain” value [3]?
A: The value was 7.7%.

Q: And the “SAE frequency: Oropharyngeal pain” value [3]?
A: Its value is 7.7%.

Q: And the “SAE frequency: Salivary duct inflammation” value [3]?
A: Its value is 7.7%.

Q: And the “SAE frequency: Stomatitis” value [3]?
A: The value was 7.7%.

Q: And the “SAE frequency: Swelling face” value [3]?
A: The value was 7.7%.

Q: And the “SAE frequency: Tumor pain” value [3]?
A: Its value is 7.7%.

Q: What about the “SAE frequency: Vomiting” value [3] of the same molecule?
A: Its value is 7.7%.

Q: What about the “SAE frequency: Weight decreased” value [3] of the same molecule?
A: Its value is 7.7%.

Q: What about the “SAE frequency: White blood cell count decreased” value [3] of the same molecule?
A: Its value is 30.8%.

Q: What about the “incidence of salivary duct inflammation” value (Arms 1 and 2, vs control 30%, N.S.) of the same molecule?
A: Its value is “none”.

Q: And the “incidence of dry mouth” value (Arms 1 and 2, vs control 60%, p=0.0028)?
A: Its value is “none”.

Q: What about the incidence of dysphagia (Arms 1 and 2, vs control 70%, p=0.0007) of the same molecule?
A: Its incidence of dysphagia is “none”.

Q: And the “SAEs attributed to RRx-001” value (PREVLAR)?
A: The value was “none were attributed to RRx-001”.

Q: What about the “toxicity attributed to RRx-001” value (PREVLAR) of the same molecule?
A: The value was “discomfort during infusion”.

Q: What about the weight loss (RRx-001-treated patients vs control 50%, p=0.0095) of the same molecule?
A: Its weight loss is “none”.

Q: And the “impact on marrow-related AEs (anemia, neutropenia), renal function or the incidence of candidiasis” value (RRx-001 treatment vs control)?
A: The value was “did not statistically impact”.

Q: What about the “character of toxicity attributable specifically to RRx-001” value (infusion) of the same molecule?
A: The value was “localized, mild, and transient”.
